Here are results for 17 compounds from PubChem BioAssay (NCI).

A word on the GI50: it is the concentration that inhibits growth by half. The TGI is the concentration giving total growth inhibition.

Some test systems named below: IGROV1 ovarian; SNB-19 CNS; A498 renal; CCRF-CEM leukemia; 786-0 renal; NCI-H23 lung; CAKI-1 renal; SK-MEL-5 melanoma; RPMI-8226 leukemia; SF-268 CNS.
Common to all, as to experiment: DTP human tumour cell line panel, 48 h

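Where inhibition never reached the appropriate level, the endpoint shown equals the highest concentration tested. Otherwise, values were interpolated linearly from a five-concentration, 48-hour dose response in 96-well plates. GI50 = concentration required for 50% inhibition of growth. TGI marks complete inhibition of growth.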

In the case of `O=C(COc1ccc(-c2nc3cc(Cl)c(Cl)cc3[nH]2)cc1)N=Nc1c(O)[nH]c2ccccc12`, the GI50 is 3130 nM with IGROV1 ovarian; 1780 nM in the experiment with SNB-19 CNS; 3.62 µM in the experiment on A498 renal; 749 nM with CCRF-CEM leukemia; 2330 nM in the experiment with 786-0 renal; 3.03 µM in the experiment on NCI-H23 lung. For the same compound, the GI50 in the experiment on CAKI-1 renal is 6.91 µM. The TGI in the experiment with IGROV1 ovarian is over 53.3 µM; with SNB-19 CNS it was 6.62 µM; in the experiment with A498 renal, 18.6 µM; in the experiment on CCRF-CEM leukemia, over 100 µM; in the experiment on 786-0 renal, 8.5 µM; with NCI-H23 lung, 15.1 µM. The concentration for total growth inhibition (TGI) in the experiment on CAKI-1 renal is over 100 µM.

As for `CCCCN1CCN(c2ccc3nc(-c4ccc5nc(-c6ccc(OCC)c(OCC)c6)[nH]c5c4)[nH]c3c2)CC1`, the GI50 in the experiment with SK-MEL-5 melanoma is 1.09 µM; in the experiment on RPMI-8226 leukemia, 436 nM; with SNB-19 CNS it was 1220 nM; with SF-268 CNS, 2660 nM; in the experiment with A498 renal it was 1.18 µM; in the experiment on CCRF-CEM leukemia, 538 nM. In addition, the values for the GI50 in the experiment with 786-0 renal and with CAKI-1 renal were 1410 nM and 1.04 µM, respectively. Further, the TGI turned out to be 3.16 µM in the experiment on SK-MEL-5 melanoma; 2.06 µM in the experiment with RPMI-8226 leukemia; 2.61 µM in the experiment on SNB-19 CNS; 22 µM in the experiment on SF-268 CNS; 2.47 µM in the experiment on A498 renal; 3.06 µM in the experiment with CCRF-CEM leukemia. The TGI came out at 2.84 µM with 786-0 renal and 2.52 µM with CAKI-1 renal.

For `Cc1cc(NS(=O)(=O)c2ccc(Nc3c4ccccc4nc4c(C(=O)Nc5ccc(S(=O)(=O)N=C(N)N)cc5)ccc(Cl)c34)cc2)no1`, the total growth inhibition concentration (TGI) is over 100 µM in the experiment on SK-MEL-5 melanoma; over 100 µM in the experiment on RPMI-8226 leukemia; over 100 µM in the experiment with SNB-19 CNS; 63.2 µM in the experiment with SF-268 CNS; over 100 µM in the experiment with A498 renal; over 100 µM with 786-0 renal. Also, the TGI is 92.6 µM with NCI-H23 lung and over 100 µM in the experiment with CAKI-1 renal.

On to `COc1cc2ccc(CC(N)=O)cc2cc1OC`, for which the TGI in the experiment with SK-MEL-5 melanoma, in the experiment on IGROV1 ovarian, with RPMI-8226 leukemia, in the experiment with SNB-19 CNS, with SF-268 CNS and in the experiment on CCRF-CEM leukemia was over 100 µM in each case. In addition, the TGI in the experiment on 786-0 renal and in the experiment with NCI-H23 lung was over 100 µM each time.

For `Cc1cnc(SCCN2CCN(C)CC2)nc1-c1cc2ccccc2s1`, the TGI in the experiment with SK-MEL-5 melanoma was 14.6 µM; in the experiment on A498 renal it was 29.8 µM; in the experiment with CCRF-CEM leukemia, 14.2 µM; in the experiment with 786-0 renal, 24.3 µM; with NCI-H23 lung, 34.3 µM; in the experiment on CAKI-1 renal, 16.4 µM.

`COc1ccc(-c2nc(-c3nc4ccc(C(F)(F)F)cc4[nH]3)c3ccccn23)cc1`: the GI50 with SK-MEL-5 melanoma is 47 µM; in the experiment with IGROV1 ovarian, over 100000 nM; in the experiment with SNB-19 CNS, over 100000 nM; with SF-268 CNS, over 100000 nM; with A498 renal, over 100 µM; with CCRF-CEM leukemia it was 7400 nM. Also, the GI50 is over 100000 nM in the experiment on 786-0 renal, over 100 µM with NCI-H23 lung and over 100 µM in the experiment with CAKI-1 renal. Moreover, the TGI in the experiment on SK-MEL-5 melanoma, in the experiment on IGROV1 ovarian, in the experiment with SNB-19 CNS, with SF-268 CNS, in the experiment with A498 renal and with CCRF-CEM leukemia was over 100 µM in each case. Further, the TGI in the experiment with 786-0 renal, in the experiment with NCI-H23 lung and with CAKI-1 renal was over 100 µM in each case.

For `CCCCCCCCCCCCCCNCC(OCC)OCC`, the TGI was 27.9 µM in the experiment on SK-MEL-5 melanoma; 30.3 µM in the experiment on IGROV1 ovarian; 31.8 µM in the experiment with SNB-19 CNS; 36.7 µM in the experiment with SF-268 CNS; 28.5 µM with A498 renal; 24.5 µM with CCRF-CEM leukemia. Also, the TGI in the experiment on 786-0 renal worked out at 33 µM; in the experiment with NCI-H23 lung, 30.5 µM.

As to `COC[C@@H](N=CN1CCc2cc(OC)c(OC)cc2C1)C(C)(C)C`, the TGI in the experiment on SK-MEL-5 melanoma, with IGROV1 ovarian, with RPMI-8226 leukemia, in the experiment on SNB-19 CNS, in the experiment on SF-268 CNS and in the experiment with CCRF-CEM leukemia was over 100 µM in each case. For the same compound, the concentration for total growth inhibition (TGI) in the experiment on 786-0 renal, in the experiment on NCI-H23 lung and in the experiment with CAKI-1 renal was over 100 µM throughout.

Turning to `O=C1c2c(c3c4ccccc4[nH]c3c3[nH]c4ccccc4c23)C(=O)N1Cc1ccccc1`, the TGI with SK-MEL-5 melanoma was determined as 3.56 µM; in the experiment with IGROV1 ovarian it was 18.7 µM; in the experiment with RPMI-8226 leukemia, 6.74 µM; in the experiment with SNB-19 CNS it was 9.02 µM; in the experiment with SF-268 CNS, 14 µM; with CCRF-CEM leukemia it was 13.3 µM. Further, the TGI came to 11.3 µM in the experiment with 786-0 renal, 6.16 µM in the experiment with NCI-H23 lung and 10.2 µM with CAKI-1 renal.

Regarding `O=S(=O)(NCCO)c1cc[c]([Sb](=[O])([OH])[OH])cc1`, the GI50 with SK-MEL-5 melanoma was over 100 µM; in the experiment on IGROV1 ovarian, over 100000 nM; with RPMI-8226 leukemia, over 100000 nM; in the experiment with SNB-19 CNS it was over 100000 nM; in the experiment with SF-268 CNS, over 100000 nM; with A498 renal it was over 100 µM. The results for the GI50 in the experiment on 786-0 renal, with NCI-H23 lung and with CAKI-1 renal were over 100000 nM, over 100 µM and over 100 µM, respectively. The TGI in the experiment with SK-MEL-5 melanoma, in the experiment with IGROV1 ovarian, in the experiment with RPMI-8226 leukemia, in the experiment on SNB-19 CNS, with SF-268 CNS and in the experiment with A498 renal was over 100 µM in each case. Further, the TGI in the experiment on 786-0 renal, in the experiment with NCI-H23 lung and with CAKI-1 renal was over 100 µM each time.

As to `N#C/C(=C\c1cccc2cnccc12)N1N=NC2C=CC=CC21` (stereo not drawn), the GI50 was 3.19 µM with SK-MEL-5 melanoma; 2700 nM with IGROV1 ovarian; 6290 nM in the experiment with SNB-19 CNS; 3060 nM with SF-268 CNS; 1.63 µM in the experiment on A498 renal; 3330 nM in the experiment with 786-0 renal. The GI50 was 3.27 µM in the experiment with NCI-H23 lung and 1.7 µM with CAKI-1 renal. For the same compound, the total growth inhibition concentration (TGI) was over 100 µM in the experiment with SK-MEL-5 melanoma; over 100 µM in the experiment on IGROV1 ovarian; over 100 µM with SNB-19 CNS; over 100 µM in the experiment on SF-268 CNS; 5.59 µM in the experiment with A498 renal; over 100 µM in the experiment with 786-0 renal. The total growth inhibition concentration (TGI) in the experiment on NCI-H23 lung and with CAKI-1 renal was over 100 µM throughout.

As for `C#CC(=O)OCC#CCOC(=O)C#C`, the TGI was over 100 µM with SK-MEL-5 melanoma; 34.3 µM with RPMI-8226 leukemia; over 100 µM in the experiment with SNB-19 CNS; over 100 µM in the experiment with SF-268 CNS; over 100 µM with A498 renal; 35.4 µM in the experiment with CCRF-CEM leukemia. Further, the total growth inhibition concentration (TGI) in the experiment on 786-0 renal was 31.4 µM; with NCI-H23 lung, 55 µM; with CAKI-1 renal, 39.1 µM.

Regarding `C/C=C1\CCC2c3[nH]c4ccccc4c3CCN2C1` (stereo not drawn), the TGI with SK-MEL-5 melanoma, in the experiment with IGROV1 ovarian, in the experiment with SNB-19 CNS, in the experiment on SF-268 CNS, in the experiment on A498 renal and with CCRF-CEM leukemia was over 100 µM in each case. The TGI with 786-0 renal, with NCI-H23 lung and in the experiment with CAKI-1 renal was over 100 µM throughout.

Consider `Cn1c(C(C)(C)OC(=O)Oc2ccccc2)cnc1[N+](=O)[O-]`, for which the TGI in the experiment on SK-MEL-5 melanoma was over 100 µM; in the experiment with IGROV1 ovarian, over 100 µM; with RPMI-8226 leukemia it was 77.1 µM; with SNB-19 CNS, over 100 µM; with SF-268 CNS, over 100 µM; in the experiment with A498 renal, over 100 µM. Besides, the TGI in the experiment on 786-0 renal, in the experiment with NCI-H23 lung and in the experiment with CAKI-1 renal was over 100 µM each time.

For the compound `C[n+]1c(/C=C/c2ccc(/C=N/NC(=O)c3ccc(C(=O)N/N=C/c4ccc(/C=C/c5cn6ccccc6[n+]5C)cc4)cc3)cc2)cn2ccccc21`, the TGI in the experiment on SK-MEL-5 melanoma is over 100 µM; with IGROV1 ovarian, over 100 µM; in the experiment on RPMI-8226 leukemia, over 100 µM; in the experiment on SNB-19 CNS, over 100 µM; with SF-268 CNS it was over 100 µM; in the experiment with CCRF-CEM leukemia it was 49.8 µM. Further, the TGI in the experiment on 786-0 renal, in the experiment with NCI-H23 lung and in the experiment on CAKI-1 renal was over 100 µM each time.

For the compound `COc1cc(NC(C)CCCN)c2ncccc2c1Sc1ccc(Cl)cc1` (stereo not drawn), the GI50 with SK-MEL-5 melanoma was 1.72 µM; with IGROV1 ovarian, 2310 nM; in the experiment on SNB-19 CNS, 1800 nM; in the experiment with SF-268 CNS, 2430 nM; in the experiment on A498 renal, 3.65 µM; with CCRF-CEM leukemia, 1770 nM. Besides, the figures for the GI50 with 786-0 renal, in the experiment with NCI-H23 lung and in the experiment on CAKI-1 renal were 1890 nM, 1.7 µM and 3.13 µM, respectively. Further, the TGI in the experiment on SK-MEL-5 melanoma is 3.09 µM; in the experiment on IGROV1 ovarian it was 5.31 µM; in the experiment with SNB-19 CNS it was 3.46 µM; in the experiment with SF-268 CNS, 6.61 µM; in the experiment with A498 renal, 16.2 µM; in the experiment with CCRF-CEM leukemia, 4.96 µM. The TGI was found to be 3.57 µM in the experiment on 786-0 renal, 3.3 µM with NCI-H23 lung and 12.3 µM in the experiment with CAKI-1 renal.

As to `CC(C)(C)N=CN(C=C(c1ccccc1)c1ccccc1)C1CCCCC1`, the TGI in the experiment with SK-MEL-5 melanoma was 31.8 µM; with IGROV1 ovarian, over 100 µM; in the experiment on SNB-19 CNS, over 100 µM; in the experiment on SF-268 CNS, over 100 µM; in the experiment on A498 renal, 91.4 µM; with CCRF-CEM leukemia, over 100 µM. For the same compound, the TGI in the experiment with 786-0 renal, in the experiment on NCI-H23 lung and with CAKI-1 renal was over 100 µM in each case.
